Holding throughout (assay type): cell-based
Assay [1] has as its system Vancomycin-Resistant Enterococci faecium (VRE, ATCC 700221). Nature of the assay: microbe, parasite or virus in culture. The protocol: (§1) See, Balouiri, M.; Sadiki, M.; Ibnsouda, S. K.; Methods for In vitro evaluation of antimicrobial activity: review. Journal of Pharmaceutical Analysis, 2016, 6 (2), 71-79; CLSI, Methods for Dilution Antimicrobial Susceptibility Tests for Bacteria that Grow Aerobically, Approved Standard, 9th Ed, CLSI document M07-A9. Approximately 50 μl of the bacterial (MRSA or MSSA) cell suspension (1.0×10^6/ml) inoculated in each well (96-micro well plate) containing 50 μl of dosing solution and plates were incubated at 37±+1C for 18 hrs. After the incubation, bacterial growth in each well of 96-well plate were calorimetrically measured by a Biotek microtiter plate reader at 630 nm. The bacterial growth inhibition (GI) is expressed as a percentage relative to the negative control.
(§2) Vancomycin-Resistant Enterococci faecium (VRE, ATCC 700221);

The test system of assay [2] is Vancomycin-Resistant Enterococci faecalis (VRE, ATCC 51299). The assay can be described thus: microbe, parasite or virus in culture. The protocol: as §1
(§3) Vancomycin-Resistant Enterococci faecalis (VRE, ATCC 51299);

The subject of assay [3] is Vancomycin-Sensitive Enterococci faecalis (VSE, ATCC 29212). The assay can be described thus: microbe, parasite or virus in culture. The protocol: as §1
Vancomycin-Sensitive Enterococci faecalis (VSE, ATCC 29212);

In assay [4] the test system is Vancomycin-Sensitive Enterococci hirae (VSE, ATCC 1056). The assay can be described thus: microbe, parasite or virus in culture. The protocol:
as §1
Vancomycin-Sensitive Enterococci hirae (VSE, ATCC 1056).

For assay [5], the system named is Methicillin-Resistant Staphylococcus aureus (MRSA, ATCC33591). The assay can be described thus: microbe, parasite or virus in culture. To be noted: for potency relative to daptomycin against MRSA: fold as potent as daptomycin. The protocol:
as §1
Methicillin-Resistant Staphylococcus aureus (MRSA, ATCC33591)

Assay [6] deals with Vancomycin-Resistant Enterococci (VRE). Nature of the assay: Potency against VRE relative to daptomycin (Test C). To be noted: fold better potency; strain not specified. The protocol:
as §1, §2, §3

For assay [7], the system named is Methicillin-Sensitive Staphylococcus aureus (MSSA, ATCC6538). The assay can be described thus: microbe, parasite or virus in culture. The following applies: read-out: Minimum Inhibitory Concentration (MIC) MSSA (ATCC6538). The protocol:
as §1
Methicillin-Sensitive Staphylococcus aureus (MSSA, ATCC6538)

The test system of assay [8] is Methicillin-Resistant Staphylococcus aureus (MRSA, PBR Lab Culture#1152). Nature of the assay: microbe, parasite or virus in culture. To be noted: Test B, read-out: Minimum Inhibitory Concentration (MIC) MRSA (PBR1152). The protocol:
as §1
Methicillin-Resistant Staphylococcus aureus (MRSA, PBR Lab Culture#1152)

SMILES strings stand for the structures. ≈ marks a conversion by molar mass, not a printed value. Where two headings read alike, the source gives them in different places.

Take `CCCCCCCCCC(=O)N[C@@H](Cc1c[nH]c2ccc(C)cc12)C(=O)N[C@H](CC(N)=O)C(=O)N[C@@H](CC(=O)O)C(=O)N[C@@H]1C(=O)NCC(=O)N[C@@H](CCCN)C(=O)N[C@@H](CC(=O)O)C(=O)N[C@H](C)C(=O)N[C@@H](CC(=O)O)C(=O)NCC(=O)N[C@H](CO)C(=O)N[C@@H]([C@H](C)CC(=O)O)C(=O)N[C@@H](CC(=O)c2ccccc2NCC)C(=O)O[C@@H]1C` [RP011]: the “Minimum Inhibitory Concentration (MIC) VRE (ATCC 700221)” value in assay [1] was determined as 0.625 µM. Moreover, in assay [2], the “Minimum Inhibitory Concentration (MIC) VRE (ATCC 51299)” value is under 0.156 µM. The “Minimum Inhibitory Concentration (MIC) VSE (ATCC 29212)” value in assay [3] is 0.313 µM. Moreover, the “Minimum Inhibitory Concentration (MIC) VSE (ATCC 1056)” value in assay [4] was found to be 1.25 µM.
Taken in the same sequence, the figures for `CCCCCCCCCC(=O)N[C@@H](Cc1c[nH]c2ccccc12)C(=O)N[C@H](CC(N)=O)C(=O)N[C@@H](CC(=O)O)C(=O)N[C@@H]1C(=O)NCC(=O)N[C@@H](CCCN)C(=O)N[C@@H](CC(=O)O)C(=O)N[C@H](C)C(=O)N[C@@H](CC(=O)O)C(=O)NCC(=O)N[C@H](CO)C(=O)N[C@@H]([C@H](C)CC(=O)O)C(=O)N[C@@H](CC(=O)c2ccccc2N)C(=O)O[C@@H]1C` [Daptomycin, reference compound] were 2.5 µM, 1.25 µM, 1.25 µM and 5.0 µM.
For `CCCCCCCCCC(=O)N[C@@H](Cc1c[nH]c2ccccc12)C(=O)N[C@H](CC(N)=O)C(=O)N[C@@H](CC(=O)O)C(=O)N[C@@H]1C(=O)NCC(=O)N[C@@H](CCCN)C(=O)N[C@@H](CC(=O)O)C(=O)N[C@H](C)C(=O)N[C@@H](CC(=O)O)C(=O)NCC(=O)N[C@H](CO)C(=O)N[C@@H]([C@H](C)CC(=O)O)C(=O)N[C@@H](CC(=O)c2ccccc2NCC)C(=O)O[C@@H]1C` [RP001] the same measures were 1.25 µM, 0.625 µM, 0.625 µM and 5.0 µM.
Regarding `CCCCCCCCCC(=O)N[C@@H](Cc1c[nH]c2ccc(C)cc12)C(=O)N[C@H](CC(N)=O)C(=O)N[C@@H](CC(=O)O)C(=O)N[C@@H]1C(=O)NCC(=O)N[C@@H](CCCN)C(=O)N[C@@H](CC(=O)O)C(=O)N[C@H](C)C(=O)N[C@@H](CC(=O)O)C(=O)NCC(=O)N[C@H](CO)C(=O)N[C@@H]([C@H](C)CC(=O)O)C(=O)N[C@@H](CC(=O)c2cc(Cl)cc(Cl)c2NCC)C(=O)O[C@@H]1C` [RP012], the “potency relative to daptomycin against MRSA” value in assay [5] is given as “roughly 10 fold”. For the same molecule, the “Minimum Inhibitory Concentration (MIC) VRE (ATCC 700221)” value in assay [1] was under 0.156 µM. Further, the “Minimum Inhibitory Concentration (MIC) VRE (ATCC 51299)” value in assay [2] is under 0.156 µM. For the same molecule, the “Minimum Inhibitory Concentration (MIC) VSE (ATCC 29212)” value in assay [3] was under 0.156 µM. In assay [4], the “Minimum Inhibitory Concentration (MIC) VSE (ATCC 1056)” value is under 0.156 µM. In assay [6], the “potency relative to daptomycin against Vancomycin-Resistant Enterococci (VRE)” value was “roughly 10 fold”.
Regarding `COc1cccc(OC)c1C(=O)N[C@@H]1C(=O)N2[C@@H]1SC(C)(C)[C@@H]2C(=O)O` [Methicillin], the MIC in assay [5] (Staphylococcus aureus, Test A, read-out: Minimum Inhibitory Concentration (MIC) MRSA (ATCC33591)) was over 64 µg/mL; in assay [7] (Test A), under 1 µg/mL; in assay [7] (Test B), under 1 µg/mL; in assay [8] it was over 64 µg/mL.
`CN[C@H](CC(C)C)C(=O)N[C@H]1C(=O)N[C@@H](CC(N)=O)C(=O)N[C@H]2C(=O)N[C@H]3C(=O)N[C@H](C(=O)N[C@H](C(=O)O)c4cc(O)cc(O)c4-c4cc3ccc4O)[C@H](O)c3ccc(c(Cl)c3)Oc3cc2cc(c3O[C@@H]2O[C@H](CO)[C@@H](O)[C@H](O)[C@H]2O[C@H]2C[C@](C)(N)[C@H](O)[C@H](C)O2)Oc2ccc(cc2Cl)[C@H]1O` [Vacomycin, reference compound]: the MIC in assay [1] (Enterococcus, read-out: Minimum Inhibitory Concentration (MIC) VRE (ATCC 700221)) is over 10 µM; in assay [2] (Enterococcus, read-out: Minimum Inhibitory Concentration (MIC) VRE (ATCC 51299)), over 10 µM; in assay [3] (Enterococcus faecalis, ATCC29212, read-out: Minimum Inhibitory Concentration (MIC) VSE (ATCC 29212)), 1.25 µM (≈ 1.81 µg/mL); in assay [4] (Enterococcus hirae, ATCC1056, read-out: Minimum Inhibitory Concentration (MIC) VSE (ATCC 1056)), 0.313 µM (≈ 0.454 µg/mL).
On to `CCCCCCCCCC(=O)N[C@@H](Cc1cn(C)c2ccccc12)C(=O)N[C@H](CC(N)=O)C(=O)N[C@@H](CC(=O)O)C(=O)N[C@@H]1C(=O)NCC(=O)N[C@@H](CCCN)C(=O)N[C@@H](CC(=O)O)C(=O)N[C@H](C)C(=O)N[C@@H](CC(=O)O)C(=O)NCC(=O)N[C@H](CO)C(=O)N[C@@H]([C@H](C)CC(=O)O)C(=O)N[C@@H](CC(=O)c2cc(Br)ccc2NCC)C(=O)O[C@@H]1C` [RP008], for which the “Minimum Inhibitory Concentration (MIC) VRE (ATCC 700221)” value in assay [1] came out at 0.313 µM. The “Minimum Inhibitory Concentration (MIC) VRE (ATCC 51299)” value in assay [2] is under 0.156 µM. The “Minimum Inhibitory Concentration (MIC) VSE (ATCC 29212)” value in assay [3] was under 0.156 µM. Further, the “Minimum Inhibitory Concentration (MIC) VSE (ATCC 1056)” value in assay [4] worked out at 0.313 µM.
For `CCCCCCCCCC(=O)N[C@@H](Cc1c[nH]c2ccc(F)cc12)C(=O)N[C@H](CC(N)=O)C(=O)N[C@@H](CC(=O)O)C(=O)N[C@@H]1C(=O)NCC(=O)N[C@@H](CCCN)C(=O)N[C@@H](CC(=O)O)C(=O)N[C@H](C)C(=O)N[C@@H](CC(=O)O)C(=O)NCC(=O)N[C@H](CO)C(=O)N[C@@H]([C@H](C)CC(=O)O)C(=O)N[C@@H](CC(=O)c2cc(Cl)cc(Cl)c2NCC)C(=O)O[C@@H]1C` [RP005], the “potency relative to daptomycin against MRSA” value in assay [5] is on record as “roughly 10 fold”. Besides, the “Minimum Inhibitory Concentration (MIC) VRE (ATCC 700221)” value in assay [1] is under 0.156 µM. Besides, the “Minimum Inhibitory Concentration (MIC) VRE (ATCC 51299)” value in assay [2] is under 0.156 µM. Also, the “Minimum Inhibitory Concentration (MIC) VSE (ATCC 29212)” value in assay [3] is under 0.156 µM. The “Minimum Inhibitory Concentration (MIC) VSE (ATCC 1056)” value in assay [4] was under 0.156 µM. For the same molecule, in assay [6], the “potency relative to daptomycin against Vancomycin-Resistant Enterococci (VRE)” value is given as “roughly 10 fold”.

These data come from patent US10072045B1, “Antibacterial lipopeptides and methods for their preparation and use” (priority 2017, dated 2018).
